Experimental data from patent US5589510A, “Method for inhibiting retroviral infection by administering a naphthalenesulfonic acid compound” (priority 1995, dated 1996).
Read-outs that look alike come from different tables or passages of the source.

Experiments:
[1] = target: T1, recombinant reverse transcriptase (RT) (Human immunodeficiency virus type 1 group M subtype B, UniProt P04585); test: Reverse transcriptase inhibition assay; format: biochemical, HIV-1
T1 construct: purchased Worthington Biochemical Corporation
Experimental: Inhibition of recombinant reverse transcriptase (RT) was performed by using commercially available Boehringer Mannheim RT assay kit (Cat. No. 1468 120) based on incorporation of digoxigenin labeled dUTP into DNA. Recombinant enzyme from HIV-1 was purchased from Worthington Biochemical Corporation. The level of anti-RT activity in the sample was determined by measurement of absorbance using an ELISA reader at 405 nm.

[2] = tested on: TA98, TA1535, TA1537, TA1538, TA100 and W2P2uvr; test: Ames Test (in the presence of S9); format: cell-based, Salmonella typhimurium
Text: Six Salmonella typhimuriumstrai strains, TA98, TA1535, TA1537, TA1538, TA100 and W2P2uvr were used in this experiment.

LD50, intravenous, mice = format: in vivo; settings: mouse, in vivo, female mice, mortalities within 1 week
Experimental: The test material was administered intravenously to 5 female mice in five increasing doses. Mortalities were recorded within 1 week, and the LD50 was determined with the aid of statistical calculations.

HIV-1 RF [3] = test: Antiviral assay, Experimental Protocol I (compound added after infection); format: cell-based; settings: Human immunodeficiency virus 1, 240 h, p24 ELISA, read-out: % Inhibition (after day 10); for inhibition at 1.25 µg/mL: 1.25 μg/ml; for inhibition at 2.5 µg/mL: 2.5 μg/ml; for inhibition at 5 µg/mL: 5 μg/ml; for inhibition at 0.6 µg/mL: 0.6 μg/ml; for inhibition at 0.3 µg/mL: 0.3 μg/ml
Experimental: HIV-1 infectivity studies were conducted in CEM, H9, MT2 cells and peripheral blood mononuclear cells (PBMC). CEM, H9 and MT2 were grown in RPMI1640 medium, 10% heat-inactivated fetal bovine serum (FBS). PBMCs were stimulated with 4 μg/ml PHA for 48 hours in RPMI1640, 10% FBS before HIV-1 infection. After HIV-1 infection, PBMCs were maintained in RPMI 1640, 10% FBS and 10 10 units/ml IL-2. The major HIV-1 isolates used were MN, IIIB, SF2, AZT-sensitive A018 and AZT-resistant A018 provided by NIH AIDS research and reference reagent program. Two major antiviral assays were developed to determine the antiviral activities of the compounds of this invention (as inhibitors).
I. The cells were infected with HIV-1 RF or IIIB at an infectivity multiplicity (moi) of 0.001 in the absence of a compound of this invention for one hour. HIV-1 infected cells were washed once with PBS, resuspended in RPMI1640, 10% FBS medium and distributed in 24-well culture dishes (5×10^5 cells per well) in the presence of a compound of this invention as inhibitor. […]

HIV-1 patient isolate IH = test: Inhibition of HIV-1 patient isolate IH in PBMCs; format: cell-based; settings: Human immunodeficiency virus 1, PBMC, 288 h, read-out: % Inhibition (after day 12); for inhibition at 2.5 µg/mL: 2.5 μg/ml; for inhibition at 5 µg/mL: 5 μg/ml; for inhibition at 10 µg/mL: 10 μg/ml; for inhibition at 20 µg/mL: 20 μg/ml
Experimental: The inhibitory effects of additional naphthalenesulfonic acid compounds were tested as follows: Experimental Details:
PBMCs were activated for 48 hours in conditioned medium containing PHA at a concentration of 4 μg/ml. […] The test compound, previously dissolved in a glucose solution (1 mg/ml), was then added to each of the wells to achieve the appropriate concentration. The plate was then incubated overnight (about 15 hours) after which 50 μl of cell-free HIV-1 patient isolate was added to each well. The plates were incubated for further 6 to 8 hours after which all free floating solution of virus was washed off. Washing was performed four times.
After removal of the virus, all cultures were resuspended in conditioned medium containing 10% FCS.
For control experiments virus growth was monitored in either 10% FCS or 50% FCS throughout the observation period (15 days).

HIV-1 RF [4] = test: Antiviral assay, Experimental Protocol II (virus incubated with compound before cells); format: cell-based; settings: Human immunodeficiency virus 1, 240 h, 10% FCS, p24 ELISA, read-out: % Inhibition (after day 10)
[5] = the higher the value, the higher the mutagenicity

Compound | inhibition at 0.5 µM [1] | Ames Test result [2] | LD50 at 168 h (LD50, intravenous, mice) | inhibition at 1.25 µg/mL (HIV-1 RF [3]; 10% FCS) | inhibition at 2.5 µg/mL (HIV-1 RF [3]; 10% FCS) | inhibition at 5 µg/mL (HIV-1 RF [3]; 10% FCS) | inhibition at 0.6 µg/mL (HIV-1 RF [3]; 10% FCS) | inhibition at 5 µg/mL (HIV-1 patient isolate IH; 10% FCS) | inhibition at 10 µg/mL (HIV-1 patient isolate IH; 10% FCS) | inhibition at 20 µg/mL (HIV-1 patient isolate IH; 10% FCS) | further results
COc1cc(N=Nc2c(S(=O)(=O)O)cc3cc(S(=O)(=O)O)cc(NC(=O)c4ccc(Cl)c(Cl)c4)c3c2O)c(OC)cc1N=Nc1c(S(=O)(=O)O)cc2cc(S(=O)(=O)O)cc(NC(=O)c3ccc(Cl)c(Cl)c3)c2c1O [Compound 10] | 55% | Negative | 140 mg/kg | – | – | – | – | – | – | – | –
COc1cc(N=Nc2c(S(=O)(=O)O)cc3cc(S(=O)(=O)O)cc(NC(=O)Nc4cccc5ccccc45)c3c2O)c(OC)cc1N=Nc1c(S(=O)(=O)O)cc2cc(S(=O)(=O)O)cc(NC(C)=O)c2c1O [Compound 16] | – | Positive | 160 mg/kg | – | – | – | – | – | – | – | inhibition at 5 µM [1]: 98%; Ames Test, specific mutagenic activity [2, 5]: 0.03 colony no/μg
CCC(C)(C)c1ccc(OCC(=O)Nc2cc(S(=O)(=O)O)cc3cc(S(=O)(=O)O)c(N=Nc4cc(OC)c(N=Nc5c(S(=O)(=O)O)cc6cc(S(=O)(=O)O)cc(NC(C)=O)c6c5O)cc4OC)c(O)c23)c(C(C)(C)CC)c1 [Compound 3] | 77% | Negative | 150 mg/kg | 96% | 100% | 100% | – | – | – | – | –
COc1cc(N=Nc2c(S(=O)(=O)O)cc3cc(S(=O)(=O)O)cc(NC(=O)c4cc(Cl)ccc4Cl)c3c2O)c(OC)cc1N=Nc1c(S(=O)(=O)O)cc2cc(S(=O)(=O)O)cc(NC(=O)c3cc(Cl)ccc3Cl)c2c1O [Compound 7] | 41% | Positive | 170 mg/kg | 99% | 100% | 100% | 81% | – | – | – | inhibition at 5 µM [1]: 75%; Ames Test, specific mutagenic activity ([2]; unit as printed for Compound 7): 0.05 colony no/g g; inhibition at 0.6 µg/mL (HIV-1 RF [3]; 50% Human Serum): 0%; inhibition at 1.25 µg/mL (HIV-1 RF [3]; 50% Human Serum): 0%; inhibition at 2.5 µg/mL (HIV-1 RF [3]; 50% Human Serum): 48%; inhibition at 5 µg/mL (HIV-1 RF [3]; 50% Human Serum): 97%
COc1cc(N=Nc2c(S(=O)(=O)O)cc3cc(S(=O)(=O)O)cc(NC(=O)c4ccc(Cl)cc4Cl)c3c2O)c(OC)cc1N=Nc1c(S(=O)(=O)O)cc2cc(S(=O)(=O)O)cc(NC(=O)c3ccc(Cl)cc3Cl)c2c1O [Compound 11] | 30% | Positive | 160 mg/kg | 100% | 100% | 100% | 100% | 0% | 100% | 100% | Ames Test, specific mutagenic activity [2, 5]: 0.02 colony no/μg; inhibition at 0.3 µg/mL (HIV-1 RF [3]; 10% FCS): 99%; inhibition at 0.6 µg/mL (HIV-1 RF [3]; 50% Human Serum): 55%; inhibition at 1.25 µg/mL (HIV-1 RF [3]; 50% Human Serum): 87%; inhibition at 2.5 µg/mL (HIV-1 RF [3]; 50% Human Serum): 93%; inhibition at 5 µg/mL (HIV-1 RF [3]; 50% Human Serum): 98%; inhibition at 2.5 µg/mL (HIV-1 patient isolate IH; 10% FCS): 0%; inhibition at 2.5 µg/mL (HIV-1 patient isolate IH; 50% Human Serum): 0%; inhibition at 5 µg/mL (HIV-1 patient isolate IH; 50% Human Serum): 0%; inhibition at 10 µg/mL (HIV-1 patient isolate IH; 50% Human Serum): 31%; inhibition at 20 µg/mL (HIV-1 patient isolate IH; 50% Human Serum): 100%
COc1cc(N=Nc2c(S(=O)(=O)O)cc3cc(S(=O)(=O)O)cc(NC(=O)c4cc(Cl)ccc4Cl)c3c2O)c(OC)cc1N=Nc1c(S(=O)(=O)O)cc2cc(S(=O)(=O)O)cc(NC(=O)c3ccc(Cl)c(Cl)c3)c2c1O [Compound 12] | – | Negative | 190 mg/kg | 99% | 100% | 100% | 96% | 85% | 100% | 100% | inhibition at 0.3 µg/mL (HIV-1 RF [3]; 10% FCS): 86%; inhibition at 0.6 µg/mL (HIV-1 RF [3]; 50% Human Serum): 0%; inhibition at 1.25 µg/mL (HIV-1 RF [3]; 50% Human Serum): 0%; inhibition at 2.5 µg/mL (HIV-1 RF [3]; 50% Human Serum): 40%; inhibition at 5 µg/mL (HIV-1 RF [3]; 50% Human Serum): 93%; inhibition at 2.5 µg/mL (HIV-1 patient isolate IH; 10% FCS): 0%; inhibition at 2.5 µg/mL (HIV-1 patient isolate IH; 50% Human Serum): 0%; inhibition at 5 µg/mL (HIV-1 patient isolate IH; 50% Human Serum): 0%; inhibition at 10 µg/mL (HIV-1 patient isolate IH; 50% Human Serum): 90%; inhibition at 20 µg/mL (HIV-1 patient isolate IH; 50% Human Serum): 93%
COc1cc(N=Nc2c(S(=O)(=O)O)cc3cc(S(=O)(=O)O)cc(NC(=O)c4ccc(Cl)cc4Cl)c3c2O)c(OC)cc1N=Nc1c(S(=O)(=O)O)cc2cc(S(=O)(=O)O)cc(NC(=O)Cc3ccc(Cl)cc3)c2c1O [Compound 18] | – | Negative | 135 mg/kg | – | – | – | – | – | – | – | inhibition at 5 µM [1]: 66%
COc1cc(N=Nc2c(S(=O)(=O)O)cc3cc(S(=O)(=O)O)cc(NC(=O)c4cccc(Cl)c4Cl)c3c2O)c(OC)cc1N=Nc1c(S(=O)(=O)O)cc2cc(S(=O)(=O)O)cc(NC(=O)c3ccccc3Cl)c2c1O [Compound 21] | – | Negative | 160 mg/kg | – | – | – | – | 23% | 77% | 100% | inhibition at 2.5 µg/mL (HIV-1 patient isolate IH; 10% FCS): 0%; inhibition at 2.5 µg/mL (HIV-1 patient isolate IH; 50% Human Serum): 10%; inhibition at 5 µg/mL (HIV-1 patient isolate IH; 50% Human Serum): 23%; inhibition at 10 µg/mL (HIV-1 patient isolate IH; 50% Human Serum): 61%; inhibition at 20 µg/mL (HIV-1 patient isolate IH; 50% Human Serum): 100%
COc1cc(N=Nc2c(S(=O)(=O)O)cc3cc(S(=O)(=O)O)cc(NC(=O)c4ccccc4)c3c2O)c(OC)cc1N=Nc1c(S(=O)(=O)O)cc2cc(S(=O)(=O)O)cc(NC(C)=O)c2c1O [Compound 5] | – | Negative | 120 mg/kg | 87% | 100% | 100% | 45% | 45% | 77% | 77% | –
COc1cc(N=Nc2c(S(=O)(=O)O)cc3cc(S(=O)(=O)O)cc(NC(=O)c4cccc(Cl)c4Cl)c3c2O)c(OC)cc1N=Nc1c(S(=O)(=O)O)cc2cc(S(=O)(=O)O)cc(NC(=O)COc3ccccc3)c2c1O [Compound 4] | – | Negative | 160 mg/kg | – | – | – | – | 60% | 88% | 98% | –
CCC(C)(C)c1ccc(OCC(=O)Nc2cc(S(=O)(=O)O)cc3cc(S(=O)(=O)O)c(N=Nc4cc(OC)c(N=Nc5c(S(=O)(=O)O)cc6cc(S(=O)(=O)O)cc(NC(=O)c7ccc(Cl)cc7Cl)c6c5O)cc4OC)c(O)c23)c(C(C)(C)CC)c1 [Compound 15] | – | Negative | 150 mg/kg | – | – | – | – | – | – | – | inhibition at 1.25 µg/mL (HIV-1 RF [4]; 1.25 μg/ml): 61%; inhibition at 2.5 µg/mL (HIV-1 RF [4]; 2.5 μg/ml): 89%; inhibition at 5 µg/mL (HIV-1 RF [4]; 5 μg/ml): 100%
COc1cc(N=Nc2c(S(=O)(=O)O)cc3cc(S(=O)(=O)O)cc(NC(=O)c4cccc5ccccc45)c3c2O)c(OC)cc1N=Nc1ccc2cc(S(=O)(=O)O)cc(NC(=O)c3ccccc3)c2c1O [Compound 13] | – | Negative | 160 mg/kg | – | – | – | – | 55% | 70% | 100% | –
